Literature values in PubChem BioAssay AID1259409 (Chemical Carcinogenesis Research Information System (CCRIS), 2018).

Tested on: rodent chemically induced tumor inhibition, incidence and multiplicity
Assay: CCRIS tumor inhibitor studies
Conditions: Dose [Inhibitor]: 0

Question: For O=c1cc(-c2ccccc2)oc2ccccc12, which “tumour outcome (control, treated, inhibition, significance)” value (Carcinogen: 7,12-DIMETHYLBENZ[A]ANTHRACENE, 57-97-6, 45 NMOL IN 0.2 ML ACETONE APPLIED 5 MIN PRIOR TO CARCINOGEN (STUDY DURATION: 21 WK), Route [Inhibitor]: DERMAL, Species: MOUSE, Strain/Sex: SENCAR/FEMALE, Target Tissue: Type of Lesion: SKIN: PAPILLOMA, Dose [Carcinogen]: 10 NMOL IN 0.2 ML ACETONE ONCE, Promoter: 12-O-TETRADECANOYLPHORBOL-13-ACETATE, 16561-29-8) is on record?
Answer: Its value is 79%, 93%, -18%, not calculated.

Question: And the “tumour outcome (control, treated, inhibition, significance)” value (Carcinogen: 7,12-DIMETHYLBENZ[A]ANTHRACENE, 57-97-6, 450 NMOL IN 0.2 ML ACETONE APPLIED 5 MIN PRIOR TO CARCINOGEN (STUDY DURATION: 21 WK), Route [Inhibitor]: DERMAL, Species: MOUSE, Strain/Sex: SENCAR/FEMALE, Target Tissue: Type of Lesion: SKIN: PAPILLOMA, Dose [Carcinogen]: 10 NMOL IN 0.2 ML ACETONE ONCE, Promoter: 12-O-TETRADECANOYLPHORBOL-13-ACETATE, 16561-29-8)?
Answer: The value was 79%, 100%, -27%, not calculated.

Question: What about the “tumour outcome (control, treated, inhibition, significance)” value (Carcinogen: 7,12-DIMETHYLBENZ[A]ANTHRACENE, 57-97-6, 4500 NMOL IN 0.2 ML ACETONE APPLIED 5 MIN PRIOR TO CARCINOGEN (STUDY DURATION: 21 WK), Route [Inhibitor]: DERMAL, Species: MOUSE, Strain/Sex: SENCAR/FEMALE, Target Tissue: Type of Lesion: SKIN: PAPILLOMA, Dose [Carcinogen]: 10 NMOL IN 0.2 ML ACETONE ONCE, Promoter: 12-O-TETRADECANOYLPHORBOL-13-ACETATE, 16561-29-8) of the same compound?
Answer: The value was 79%, 80%, -1%, not calculated.

Question: And the “tumour outcome (control, treated, inhibition, significance)” value (Carcinogen: 7,14-DIMETHYLBENZO[A,H]ANTHRACENE, 35335-07-0, 45 NMOL IN 0.2 ML ACETONE APPLIED 5 MIN PRIOR TO CARCINOGEN (STUDY DURATION: 21 WK), Route [Inhibitor]: DERMAL, Species: MOUSE, Strain/Sex: SENCAR/FEMALE, Target Tissue: Type of Lesion: SKIN: PAPILLOMA, Dose [Carcinogen]: 47.5 NMOL IN 0.2 ML ACETONE ONCE, Promoter: 12-O-TETRADECANOYLPHORBOL-13-ACETATE, 16561-29-8)?
Answer: Its value is 97%, 97%, 0%.

Question: What about the “tumour outcome (control, treated, inhibition, significance)” value (Carcinogen: 7,14-DIMETHYLBENZO[A,H]ANTHRACENE, 35335-07-0, 450 NMOL IN 0.2 ML ACETONE APPLIED 5 MIN PRIOR TO CARCINOGEN (STUDY DURATION: 21 WK), Route [Inhibitor]: DERMAL, Species: MOUSE, Strain/Sex: SENCAR/FEMALE, Target Tissue: Type of Lesion: SKIN: PAPILLOMA, Dose [Carcinogen]: 47.5 NMOL IN 0.2 ML ACETONE ONCE, Promoter: 12-O-TETRADECANOYLPHORBOL-13-ACETATE, 16561-29-8) of the same compound?
Answer: Its value is 97%, 97%, 0%.

Question: What about the “tumour outcome (control, treated, inhibition, significance)” value (Carcinogen: 7,14-DIMETHYLBENZO[A,H]ANTHRACENE, 35335-07-0, 4500 NMOL IN 0.2 ML ACETONE APPLIED 5 MIN PRIOR TO CARCINOGEN (STUDY DURATION: 21 WK), Route [Inhibitor]: DERMAL, Species: MOUSE, Strain/Sex: SENCAR/FEMALE, Target Tissue: Type of Lesion: SKIN: PAPILLOMA, Dose [Carcinogen]: 47.5 NMOL IN 0.2 ML ACETONE ONCE, Promoter: 12-O-TETRADECANOYLPHORBOL-13-ACETATE, 16561-29-8) of the same compound?
Answer: Its value is 97%, 68%, 30%, not calculated.

Question: What about the “tumour outcome (control, treated, inhibition, significance)” value (Carcinogen: DIBENZO[A,H]ANTHRACENE, 53-70-3, 45 NMOL IN 0.2 ML ACETONE APPLIED 5 MIN PRIOR TO CARCINOGEN (STUDY DURATION: 21 WK), Route [Inhibitor]: DERMAL, Species: MOUSE, Strain/Sex: SENCAR/FEMALE, Target Tissue: Type of Lesion: SKIN: PAPILLOMA, Dose [Carcinogen]: 200 NMOL IN 0.2 ML ACETONE ONCE, Promoter: 12-O-TETRADECANOYLPHORBOL-13-ACETATE, 16561-29-8) of the same compound?
Answer: The value was 100%, 93%, 7%, not calculated.

Question: And the “tumour outcome (control, treated, inhibition, significance)” value (Carcinogen: DIBENZO[A,H]ANTHRACENE, 53-70-3, 450 NMOL IN 0.2 ML ACETONE APPLIED 5 MIN PRIOR TO CARCINOGEN (STUDY DURATION: 21 WK), Route [Inhibitor]: DERMAL, Species: MOUSE, Strain/Sex: SENCAR/FEMALE, Target Tissue: Type of Lesion: SKIN: PAPILLOMA, Dose [Carcinogen]: 200 NMOL IN 0.2 ML ACETONE ONCE, Promoter: 12-O-TETRADECANOYLPHORBOL-13-ACETATE, 16561-29-8)?
Answer: Its value is 100%, 86%, 14%, not calculated.

Question: And the “tumour outcome (control, treated, inhibition, significance)” value (Carcinogen: DIBENZO[A,H]ANTHRACENE, 53-70-3, 4500 NMOL IN 0.2 ML ACETONE APPLIED 5 MIN PRIOR TO CARCINOGEN (STUDY DURATION: 21 WK), Route [Inhibitor]: DERMAL, Species: MOUSE, Strain/Sex: SENCAR/FEMALE, Target Tissue: Type of Lesion: SKIN: PAPILLOMA, Dose [Carcinogen]: 200 NMOL IN 0.2 ML ACETONE ONCE, Promoter: 12-O-TETRADECANOYLPHORBOL-13-ACETATE, 16561-29-8)?
Answer: The value was 100%, 93%, 7%, not calculated.

Question: And the “tumour outcome (control, treated, inhibition, significance)” value (1000 PPM IN DIET BEGINNING 8 WK PRIOR TO CARCINOGEN AND CONTINUING FOR 6 WK POST CARCINOGEN (STUDY DURATION: 68 WK), Route [Inhibitor]: ORAL, Species: FISH, Strain/Sex: RAINBOW TROUT, Target Tissue: Type of Lesion: LIVER: HEPATOCELLULAR CARCINOMA, Dose [Carcinogen]: 20 PPB IN DIET FOR 2 WK, Promoter: NONE USED)?
Answer: The value was 43/118 (36%), 45/120 (38%), -5%, not significant.
